Laboratory results taken from PubChem BioAssay AID1918999 (Molecular Pharmacology Branch, DTP, NCI, 2023).

Tested on: 556581-035-R-J1-PDC complex spheroid growth
Experiment: Anticancer human tumor 556581-035-R-J1-PDC patient-derived ovarian carcinoma cell line growth inhibition [AhR]
Conditions: for IC50: curve of first compound; for viability, T/C: stronger effect = lower value
Excerpt: Multicellular complex tumor spheroid response to aryl hydrocarbon receptor antagonists in combination with a variety of drugs and investigational agents in selected tumor cell lines
The current study was undertaken to assess response to aryl hydrocarbon receptor antagonists in combination with standard-of-care drugs and investigational agents in solid tumor complex spheroid models. Complex spheroids include a stromal component modeled by human endothelial cells (HUVEC) and fibroblasts modeled by human mesenchymal stem cells (MSCs). The concentration ranges selected for each drug and investigational agent were based upon clinically achievable concentrations if the clinical Cmax of the agent was known.
Compounds. The drugs and investigational agents: BAY 2416964 (NSC825713), GNF351 (NSC835774), CH-223191 (NSC835775), CPI-455 (NSC825282), aza-TdCyd (NSC777586), decitabine (NSC127716), belinostat (NSC758774), entinostat (NSC756642), pevonedistat (NSC761192), tazemetostat (NSC777109), talazoparib (NSC765396), olaparib (NSC753686), selinexor (NSC780203), nedisertib (M3814, NSC802822), bortezomib (NSC756655), venetoclax (NSC766270), doxorubicin (NSC123127), elimusertib (BAY189344, NSC800525), ceralasertib (AZD6738, NSC777638), TAK-243 (NSC785004), alisertib (NSC759677), etoposide (NSC141540), topotecan (NSC609699), eribulin (NSC707389), gemcitabine (NSC613327), carboplatin (NSC241240), cisplatin (NSC119875), and SN-38 (NSC673596) were obtained from the National Cancer Institute (NCI) Developmental Therapeutics Program Chemical Repository (32). The FDA-approved anticancer drug set is available from the Developmental Therapeutics Program at https://dtp.cancer.gov/organization/dscb/obtaining/available plates.htm. […] The stock solutions were prepared in dimethyl sulfoxide (DMSO, Sigma-Aldrich, St. Louis, MO, cat. D2650), except for the platinum compounds which were prepared in saline (Quality Biological, Gaithersburg, MD, cat. 114-055-101), at 800-fold the tested concentration and stored at -70 degrees C prior to their use. All drugs and investigational agents were tested over a range starting from a high concentration at or near the clinical Cmax and decreasing in half-log increments. If the clinical Cmax for an agent had not been determined, the highest concentration tested was 10 microM (Table 1).
Cell Culture. All cells were maintained in an incubator at 37 degrees C and 5% CO2 with 95% humidity. The PDC lines were cultured according to standard operating procedures established by the NCI PDMR (https://pdmr.cancer.gov). Briefly, all PDCs were thawed and cultured in Matrigel-coated flasks prepared with a working solution of 1X Ham's F-12 nutrient mix, without supplementation (Invitrogen, Waltham, MA, cat. 11765054), 100 U/mL penicillin-streptomycin (Invitrogen, cat. 15140122), and 2.5% Matrigel (Corning Inc., Corning, NY, cat. 354248) for the first three passages. All PDCs were cultured in complete DMEM/F-12 media containing advanced DMEM/F-12 (Invitrogen, cat. 12634028), 4.9% defined fetal bovine serum, heat inactivated (HyClone Laboratories Inc., Logan, UT, cat. SH30070.03HI), 389 ng/mL hydrocortisone (Sigma-Aldrich, cat. H4001), 9.7 ng/mL human EGF recombinant protein (Invitrogen, cat. PHG0313), 23.4 microg/mL adenine (Sigma-Aldrich, cat. A2786), 97.3 U/mL penicillin-streptomycin (Invitrogen, cat. 15140122), 1.9 mM L-glutamine (Invitrogen, cat. 25030081), and 9.7 microM Y-27632 dihydrochloride (Tocris Bioscience, Bristol, United Kingdom, cat. 1254). The PDCs were cultured in complete DMEM/F12 media without 10 microM Y-27632 dihydrochloride for at least two passages prior to the screen. The established cell lines NCI-H1341 and […] were cultured in DMEM/F-12, HEPES (Invitrogen, cat. 11330032), 5% defined fetal bovine serum (HyClone Laboratories Inc., cat. SH30070.03), ITS premix universal culture supplement [insulin (5 microg/mL), transferrin (5 microg/mL), and selenious acid (5 ng/mL)] […]

[1] = second compound 0.1 µM, first compound 0.0316 µM
[2] = second compound 0.1 µM, first compound 0.1 µM
[3] = second compound 0.1 µM, first compound 0.316 µM
[4] = second compound 0.1 µM, first compound 1 µM
[5] = second compound 0.1 µM, first compound 3.16 µM
[6] = second compound 0.1 µM, first compound 10 µM
[7] = second compound 0.316 µM, first compound 0.0316 µM
[8] = second compound 0.316 µM, first compound 0.1 µM
[9] = second compound 0.316 µM, first compound 0.316 µM
[10] = second compound 0.316 µM, first compound 1 µM
[11] = second compound 0.316 µM, first compound 3.16 µM
[12] = second compound 0.316 µM, first compound 10 µM
[13] = second compound 1 µM, first compound 0.0316 µM
[14] = second compound 1 µM, first compound 0.1 µM
[15] = second compound 1 µM, first compound 0.316 µM
[16] = second compound 1 µM, first compound 1 µM
[17] = second compound 1 µM, first compound 3.16 µM
[18] = second compound 1 µM, first compound 10 µM
[19] = second compound 3.16 µM, first compound 0.0316 µM
[20] = second compound 3.16 µM, first compound 0.1 µM
[21] = second compound 3.16 µM, first compound 0.316 µM
[22] = second compound 3.16 µM, first compound 1 µM
[23] = second compound 3.16 µM, first compound 3.16 µM
[24] = second compound 3.16 µM, first compound 10 µM
[25] = second compound 10 µM, first compound 0.0316 µM
[26] = second compound 10 µM, first compound 0.1 µM
[27] = second compound 10 µM, first compound 0.316 µM
[28] = second compound 10 µM, first compound 1 µM
[29] = second compound 10 µM, first compound 3.16 µM
[30] = second compound 10 µM, first compound 10 µM
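Wherever viability, T/C is given: compound exposure lasted 7 days; 100% = DMSO vehicle control growth.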

| SMILES | IC50 (second compound 0.1 µM) | IC50 (second compound 0.316 µM) | IC50 (second compound 1 µM) | IC50 (second compound 3.16 µM) | IC50 (second compound 10 µM) | viability, T/C [1] | viability, T/C [2] | viability, T/C [3] | viability, T/C [4] | viability, T/C [5] | viability, T/C [6] | viability, T/C [7] | viability, T/C [8] | viability, T/C [9] | viability, T/C [10] | viability, T/C [11] | viability, T/C [12] | viability, T/C [13] | viability, T/C [14] | viability, T/C [15] | further results |
| --- | --- | --- | --- | --- | --- | --- | --- | --- | --- | --- | --- | --- | --- | --- | --- | --- | --- | --- | --- | --- | --- |
| Nc1ccn(C2OC(CO)C(O)C2(F)F)c(=O)n1 (stereo not given) + Cc1cncc(-c2nc(NCCc3c[nH]c4ccccc34)c3ncn(C(C)C)c3n2)c1 | < 0.0316 µM | < 0.0316 µM | < 0.0316 µM | < 0.0316 µM | 6.07 µM | 32.8% | 34.5% | 35.8% | 32.9% | 34.1% | 28.2% | 34.5% | 34.9% | 37% | 37.6% | 29.2% | 32.7% | 31.8% | 36.1% | 36% | viability, T/C [16]: 36.5%; viability, T/C [17]: 32.7%; viability, T/C [18]: 28.6%; viability, T/C [19]: 43.3%; viability, T/C [20]: 45.4%; viability, T/C [21]: 44.3%; viability, T/C [22]: 45.9%; viability, T/C [23]: 38.2%; viability, T/C [24]: 33%; viability, T/C [25]: 55.7%; viability, T/C [26]: 64.2%; viability, T/C [27]: 57%; viability, T/C [28]: 62.7%; viability, T/C [29]: 48.1%; viability, T/C [30]: 48.6% |
| CC(C)c1c(-c2ccccc2)nc2c(C#N)c[nH]n2c1=O + Cc1ccccc1N=Nc1ccc(NC(=O)c2ccnn2C)c(C)c1 | > 10 µM | > 10 µM | > 10 µM | > 10 µM | > 10 µM | 106% | 111% | 103% | 104% | 97.7% | 93.4% | 96.7% | 94.1% | 107% | 96.1% | 85.5% | 103% | 110% | 108% | 96% | viability, T/C [16]: 106%; viability, T/C [17]: 106%; viability, T/C [18]: 95.8%; viability, T/C [19]: 95.6%; viability, T/C [20]: 92.2%; viability, T/C [21]: 104%; viability, T/C [22]: 83.6%; viability, T/C [23]: 96%; viability, T/C [24]: 87.9%; viability, T/C [25]: 94.7%; viability, T/C [26]: 86.8%; viability, T/C [27]: 80.9%; viability, T/C [28]: 91.5%; viability, T/C [29]: 84.5%; viability, T/C [30]: 76.9% |
